Data taken from patent US10174032B2, “Heterocyclic compound classes for signaling modulation” (SignalRx Pharmaceuticals, Inc., priority 2014, dated 2019).
Where two headings read alike, the source gives them in different places.

Experiments:
BRD4 = BRD4 (Homo sapiens, UniProt O60885); test: BRD4 inhibition assay of CAL101; type: binding; settings: no significant BRD4 inhibition
PI3K-alpha = PI3K-alpha (Homo sapiens, UniProt P42336); test: Kinase inhibition assay, P-33 labelled ATP phosphate transfer, PI3K-alpha; type: biochemical; settings: for inhibition at 0.3 µM: read-out: PI3K-alpha (% Inh at 300 nM)
PI3K-alpha, sequence (P42336 whole entry, species assumed): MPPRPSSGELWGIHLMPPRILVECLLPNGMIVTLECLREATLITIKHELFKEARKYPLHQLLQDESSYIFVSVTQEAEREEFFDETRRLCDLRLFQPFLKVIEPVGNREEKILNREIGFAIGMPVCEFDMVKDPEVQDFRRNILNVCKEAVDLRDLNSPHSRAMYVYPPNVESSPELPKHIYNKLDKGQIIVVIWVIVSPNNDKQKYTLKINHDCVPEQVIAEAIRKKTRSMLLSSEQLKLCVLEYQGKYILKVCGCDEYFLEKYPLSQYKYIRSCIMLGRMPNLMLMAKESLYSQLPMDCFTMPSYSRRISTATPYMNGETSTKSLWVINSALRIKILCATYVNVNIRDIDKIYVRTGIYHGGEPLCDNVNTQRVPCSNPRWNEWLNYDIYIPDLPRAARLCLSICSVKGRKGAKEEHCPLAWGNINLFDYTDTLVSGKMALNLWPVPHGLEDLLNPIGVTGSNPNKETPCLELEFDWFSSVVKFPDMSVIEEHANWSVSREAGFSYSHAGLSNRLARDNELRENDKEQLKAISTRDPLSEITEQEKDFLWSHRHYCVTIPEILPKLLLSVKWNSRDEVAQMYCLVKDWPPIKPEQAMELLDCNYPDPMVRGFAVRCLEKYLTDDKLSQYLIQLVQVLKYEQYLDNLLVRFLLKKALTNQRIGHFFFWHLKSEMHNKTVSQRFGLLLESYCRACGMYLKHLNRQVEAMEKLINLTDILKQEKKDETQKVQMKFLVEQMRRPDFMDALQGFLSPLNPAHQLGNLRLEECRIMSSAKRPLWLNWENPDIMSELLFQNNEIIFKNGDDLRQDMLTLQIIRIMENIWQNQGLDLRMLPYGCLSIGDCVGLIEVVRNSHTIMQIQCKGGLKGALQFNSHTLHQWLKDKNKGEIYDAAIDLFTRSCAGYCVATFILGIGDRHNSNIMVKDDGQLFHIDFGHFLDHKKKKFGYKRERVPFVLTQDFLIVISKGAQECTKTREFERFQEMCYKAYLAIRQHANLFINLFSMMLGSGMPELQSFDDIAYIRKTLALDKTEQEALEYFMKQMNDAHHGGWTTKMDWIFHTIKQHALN
PI3K-alpha, sequence (P27986 whole entry partner, species assumed): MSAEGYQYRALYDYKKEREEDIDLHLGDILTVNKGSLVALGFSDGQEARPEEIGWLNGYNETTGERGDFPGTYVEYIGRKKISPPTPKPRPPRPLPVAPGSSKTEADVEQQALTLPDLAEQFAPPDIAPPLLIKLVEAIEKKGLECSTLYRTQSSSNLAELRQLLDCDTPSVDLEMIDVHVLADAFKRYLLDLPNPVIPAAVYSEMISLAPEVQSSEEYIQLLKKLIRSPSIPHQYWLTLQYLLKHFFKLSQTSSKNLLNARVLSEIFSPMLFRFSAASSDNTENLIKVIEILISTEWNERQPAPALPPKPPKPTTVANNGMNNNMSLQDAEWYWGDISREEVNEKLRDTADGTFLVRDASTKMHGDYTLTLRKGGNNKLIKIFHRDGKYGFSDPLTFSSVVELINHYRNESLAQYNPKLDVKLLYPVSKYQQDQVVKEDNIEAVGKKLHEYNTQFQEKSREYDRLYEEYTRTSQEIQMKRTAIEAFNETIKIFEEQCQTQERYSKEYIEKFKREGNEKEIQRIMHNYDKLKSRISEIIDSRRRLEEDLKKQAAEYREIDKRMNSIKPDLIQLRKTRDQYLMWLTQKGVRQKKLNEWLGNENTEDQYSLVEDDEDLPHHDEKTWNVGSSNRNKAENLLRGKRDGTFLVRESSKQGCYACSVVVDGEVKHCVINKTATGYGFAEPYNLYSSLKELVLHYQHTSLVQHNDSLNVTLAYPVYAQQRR
Protocol: (§1) The assays determined the amount of radioactive phosphate transferred from P-33 labelled ATP to the substrate by the enzyme in the presence of various concentrations of the inhibitor test compounds. […] After this time period the cells were serum starved for 5 hours followed by application of the test compound. Test compound was added as a DMSO (dimethyl sulfoxide) solution such that the final DMSO concentration in the cell media was less than or equal to 0.2% by volume. After 30 minutes of exposure the growth factor stimulant, human IGF-1 (Pepro Tech, Inc., Rocky Hill, N.J., Cat.#100-11), was added in each well. […] A SpectraMax Plus spectrophotometric plate reader (Molecular Devices, Sunnydale, Calif.) was used to measure the optical density signal for pAKT at 450 nm (OD450 nm). The pAKT OD450 nm readings were normalized by total protein amount in the cell lysates determined by standard methods. Concentrations of test compounds required to inhibit IGF stimulated pAKT levels to 50% of maximum levels in PC3 cells (termed DM50 for decreased maximum 50%) were calculated by inputting the dose responses in the software package GraphPad Prism4 (GraphPad Software, Inc., San Diego, Calif.).

PLK-1 = PLK-1 (Homo sapiens, UniProt P53350); test: Kinase inhibition assay, P-33 labelled ATP phosphate transfer, PLK-1; type: biochemical; settings: for inhibition at 0.3 µM: read-out: PLK-1(% Inh at 300 nM)
PLK-1, sequence (P53350 whole entry, species assumed): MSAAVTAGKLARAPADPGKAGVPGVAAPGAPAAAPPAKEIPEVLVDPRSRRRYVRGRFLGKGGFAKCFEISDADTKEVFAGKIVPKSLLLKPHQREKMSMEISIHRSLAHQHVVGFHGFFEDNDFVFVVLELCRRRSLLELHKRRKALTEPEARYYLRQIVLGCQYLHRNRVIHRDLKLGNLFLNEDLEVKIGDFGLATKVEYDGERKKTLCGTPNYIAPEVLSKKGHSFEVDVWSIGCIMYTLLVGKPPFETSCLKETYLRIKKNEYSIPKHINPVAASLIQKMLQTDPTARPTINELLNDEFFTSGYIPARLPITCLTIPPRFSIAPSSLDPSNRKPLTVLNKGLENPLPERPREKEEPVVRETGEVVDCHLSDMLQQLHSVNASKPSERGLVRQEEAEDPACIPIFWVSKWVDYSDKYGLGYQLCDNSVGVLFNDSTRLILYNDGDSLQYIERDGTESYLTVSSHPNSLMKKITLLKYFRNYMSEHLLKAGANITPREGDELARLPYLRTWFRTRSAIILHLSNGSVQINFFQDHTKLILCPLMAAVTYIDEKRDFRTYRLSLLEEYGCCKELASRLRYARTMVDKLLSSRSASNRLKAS
Protocol: as §1

PC3 cells = test: PC3 cell proliferation (WST, 72 hours); type: cell-based; settings: Homo sapiens, read-out: PC3 cell proliferation(IC50 μM)
Protocol: The PC3 cell proliferation data in column 26 of Table 5 was obtained as follows: PC3 cells were obtained from the American Type Culture Collection (ATCC, Manassas, Va., Cat.#CRL-1435). Two thousand cells from the prostate cancer line PC3 were placed in 50 μL of complete RPMI 1640 media (Invitrogen, Carlsbad, Calif., Cat.#22400-105) with 10% fetal bovine serum, (Invitrogen, Carlsbad, Calif., Cat.#10438-026) into each well of 96-well cell culture plates in a hexaplicate sampling pattern. A 50 μL aliquot of test compound (prepared from stock test compounds in DMSO diluted into media) was added to the appropriate well such that the final concentrations of test compound were 200, 40, 8, 1.6, 0.32, 0.064, 0.0128, 0.00256, and 0 μM and the final DMSO concentration was less than or equal to 0.2% . The plates were incubated for 72 hours 37° C. in an atmosphere of 5% CO2. At the end of this time a 10 μL aliquot of WST solution (Roche Applied Science, Mannheim, Germany) was added into each of the wells. Cells were exposed to the WST solution for 4 hours. A SpectraMax Plus spectrophotometric plate reader (Molecular Devices, Sunnydale, Calif.) was then used to measure the optical density at 450 nm (OD450 nm). Sigmoidal curves were drawn for the dose responses and IC50 values were calculated using the software package GraphPad Prism4 (GraphPad Software, Inc., San Diego, Calif.).

PI3K-delta = PI3K-delta (Homo sapiens, UniProt O00329); test: Kinase inhibition assay, P-33 labelled ATP phosphate transfer, PI3K-delta; type: biochemical; settings: for inhibition at 0.3 µM: read-out: PI3K-delta(% Inh at 300 nM); for inhibition at 10 µM: read-out: PI3K-delta(% Inh at 10 μM)
PI3K-delta, sequence (O00329 whole entry, species assumed): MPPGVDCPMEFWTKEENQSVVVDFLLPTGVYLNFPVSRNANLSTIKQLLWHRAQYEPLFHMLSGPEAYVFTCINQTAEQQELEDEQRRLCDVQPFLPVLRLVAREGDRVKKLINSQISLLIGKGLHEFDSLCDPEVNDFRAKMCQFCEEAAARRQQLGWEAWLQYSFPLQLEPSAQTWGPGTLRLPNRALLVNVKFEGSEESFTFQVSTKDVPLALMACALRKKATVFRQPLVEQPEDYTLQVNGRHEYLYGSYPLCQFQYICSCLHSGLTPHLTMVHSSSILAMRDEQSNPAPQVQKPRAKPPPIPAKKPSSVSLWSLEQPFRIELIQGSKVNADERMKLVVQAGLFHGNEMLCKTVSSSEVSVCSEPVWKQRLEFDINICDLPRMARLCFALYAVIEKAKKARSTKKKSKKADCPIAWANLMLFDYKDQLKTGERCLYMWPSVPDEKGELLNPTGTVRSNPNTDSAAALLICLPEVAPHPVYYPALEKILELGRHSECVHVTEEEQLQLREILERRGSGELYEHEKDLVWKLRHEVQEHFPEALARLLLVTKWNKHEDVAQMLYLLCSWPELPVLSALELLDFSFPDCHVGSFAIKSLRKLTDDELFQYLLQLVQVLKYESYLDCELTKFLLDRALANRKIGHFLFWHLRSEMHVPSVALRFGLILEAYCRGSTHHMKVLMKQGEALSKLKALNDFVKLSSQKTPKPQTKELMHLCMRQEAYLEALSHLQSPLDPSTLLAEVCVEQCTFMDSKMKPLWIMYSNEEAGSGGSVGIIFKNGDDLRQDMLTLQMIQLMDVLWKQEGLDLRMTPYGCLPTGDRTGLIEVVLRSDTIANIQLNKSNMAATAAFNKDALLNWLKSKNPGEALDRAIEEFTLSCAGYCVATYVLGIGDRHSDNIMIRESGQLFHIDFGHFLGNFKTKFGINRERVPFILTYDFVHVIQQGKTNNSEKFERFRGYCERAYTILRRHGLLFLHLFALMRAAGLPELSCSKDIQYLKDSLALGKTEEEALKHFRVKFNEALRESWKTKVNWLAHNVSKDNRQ
PI3K-delta, sequence (P27986 whole entry partner, species assumed): as the sequence (P27986 whole entry partner, species assumed) above
Protocol: as §1

mTOR = mTOR (Homo sapiens, UniProt P42345); test: Kinase inhibition assay, P-33 labelled ATP phosphate transfer, mTOR; type: biochemical; settings: for inhibition at 0.3 µM: read-out: mTOR(% Inh at 300 nM); for inhibition at 10 µM: read-out: mTOR(% Inh at 10 μM)
Protocol: as §1

PI3K-gamma = PI3K-gamma (Homo sapiens, UniProt P48736); test: Kinase inhibition assay, P-33 labelled ATP phosphate transfer, PI3K-gamma; type: biochemical; settings: for inhibition at 10 µM: read-out: PI3K-gamma(% Inh at 10 μM)
PI3K-gamma, sequence (P48736 whole entry, species assumed): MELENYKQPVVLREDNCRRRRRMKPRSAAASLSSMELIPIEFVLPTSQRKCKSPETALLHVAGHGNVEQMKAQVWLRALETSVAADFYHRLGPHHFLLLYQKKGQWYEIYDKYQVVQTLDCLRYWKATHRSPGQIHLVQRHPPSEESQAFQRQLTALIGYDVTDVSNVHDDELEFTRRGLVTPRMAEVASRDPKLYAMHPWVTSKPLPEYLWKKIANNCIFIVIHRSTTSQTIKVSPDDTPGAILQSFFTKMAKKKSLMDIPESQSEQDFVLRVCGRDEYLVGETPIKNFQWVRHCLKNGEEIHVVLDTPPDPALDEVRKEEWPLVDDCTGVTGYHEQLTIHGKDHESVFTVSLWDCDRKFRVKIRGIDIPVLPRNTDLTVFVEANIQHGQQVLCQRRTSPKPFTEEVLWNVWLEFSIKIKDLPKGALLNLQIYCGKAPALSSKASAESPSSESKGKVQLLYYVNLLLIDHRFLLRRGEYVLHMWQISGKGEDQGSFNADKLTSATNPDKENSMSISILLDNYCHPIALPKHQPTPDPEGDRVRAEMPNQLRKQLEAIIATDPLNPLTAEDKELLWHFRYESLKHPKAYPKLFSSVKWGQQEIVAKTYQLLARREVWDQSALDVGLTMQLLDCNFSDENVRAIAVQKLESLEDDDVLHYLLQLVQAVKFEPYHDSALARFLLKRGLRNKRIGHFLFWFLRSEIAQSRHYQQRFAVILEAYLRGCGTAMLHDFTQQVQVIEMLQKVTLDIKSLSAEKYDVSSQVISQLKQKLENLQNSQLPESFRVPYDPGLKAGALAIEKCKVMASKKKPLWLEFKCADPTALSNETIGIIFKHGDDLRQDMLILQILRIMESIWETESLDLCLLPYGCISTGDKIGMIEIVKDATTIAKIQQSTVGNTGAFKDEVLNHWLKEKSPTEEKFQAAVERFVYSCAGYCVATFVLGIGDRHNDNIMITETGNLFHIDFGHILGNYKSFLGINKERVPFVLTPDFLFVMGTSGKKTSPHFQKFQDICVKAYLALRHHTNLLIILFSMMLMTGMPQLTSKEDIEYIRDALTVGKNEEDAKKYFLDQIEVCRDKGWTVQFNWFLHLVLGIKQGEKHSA
Protocol: as §1

PI3K-beta = PI3K-beta (Homo sapiens, UniProt P42338); test: Kinase inhibition assay, P-33 labelled ATP phosphate transfer, PI3K-beta; type: biochemical; settings: for inhibition at 10 µM: read-out: PI3K-beta(% Inh at 10 μM)
Protocol: as §1

[1] = system: pAKT serine 473 in PC3 cells; test: IGF-1 stimulated pAKT serine 473 level in PC3 cells (sandwich ELISA); type: cell-based; settings: Homo sapiens, PC-3, 0.5 h, 30 minutes compound exposure, termed DM50 in text
Protocol: as §1

PIM-1 = PIM-1 (Homo sapiens, UniProt P11309); test: Kinase inhibition assay, P-33 labelled ATP phosphate transfer, PIM-1; type: biochemical; settings: for inhibition at 10 µM: read-out: PIM-1(% Inh at 10 μM)
PIM-1, sequence (P11309 whole entry, species assumed): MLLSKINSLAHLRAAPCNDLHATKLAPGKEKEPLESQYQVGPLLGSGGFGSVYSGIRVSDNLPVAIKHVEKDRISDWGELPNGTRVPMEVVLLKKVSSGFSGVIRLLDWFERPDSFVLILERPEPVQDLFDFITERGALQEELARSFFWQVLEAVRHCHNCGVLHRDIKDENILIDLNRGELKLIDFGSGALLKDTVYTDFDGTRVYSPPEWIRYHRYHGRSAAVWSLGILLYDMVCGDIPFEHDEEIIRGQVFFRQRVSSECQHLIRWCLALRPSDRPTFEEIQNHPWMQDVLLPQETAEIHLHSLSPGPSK
Protocol: as §1

DNA-PK = DNA-PK (Homo sapiens, UniProt P78527); test: Kinase inhibition assay, P-33 labelled ATP phosphate transfer, DNA-PK; type: biochemical
Protocol: as §1

PI-3 kinases = settings: cited from earlier work
BET protein BRD4-1 = BET protein BRD4-1 (Homo sapiens, UniProt O60885); settings: S W J Ember 2014; cited from earlier work

IC50 (PC3 cells; PC-3, PC3 cells, 72 hours, WST) [µM] | inhibition at 0.3 µM (mTOR) [%] | inhibition at 0.3 µM (PI3K-alpha) [%] | inhibition at 0.3 µM (PLK-1) [%] | inhibition at 0.3 µM (PI3K-delta) [%] | Compound | other results
 |  |  |  |  | CC[C@H](Nc1ncnc2[nH]cnc12)c1nc2cccc(F)c2c(=O)n1-c1ccccc1 [CAL101] | IC50 (BRD4): > 50 µM
28 | 4 |  |  |  | O=c1nc(N2CCOCC2)oc2c(-c3ccccc3)csc12 [Compound 3, 2-morpholino-7-phenyl-4H-thieno[2,3-e][1,3]oxazin-4-one] | IC50 (PI3K-alpha): 1.4 µM; IC50 (PLK-1): 2.3 µM; IC50 (PI3K-delta): 1.5 µM; IC50 (PI3K-gamma): 5.5 µM; IC50 (PI3K-beta): 10 µM; IC50 [1]: 11 µM
246 |  |  |  |  | O=c1nc(N2CCOCC2)[nH]c2c(-c3ccccc3)csc12 [Compound 5, 2-morpholino-7-phenylthieno[3,2-d]pyrimidin-4(1H)-one] | inhibition at 10 µM (PI3K-alpha; read-out: PI3K-alpha(% Inh at 10 μM)): 12%
4.7 | 0 | 53 | 0 | 72 | O=c1nc(N2CCOCC2)oc2c(-c3ccc4c(c3)OCCO4)csc12 [Compound 12] | 
20 | 0 | 11 | 0 | 33 | CN(C)c1ccc(-c2csc3c(=O)nc(N4CCOCC4)oc23)cc1 [Compound 15] | 
31 | 0 | 16 | 0 | 17 | O=C(NCCN1CCOCC1)c1cccc(-c2csc3c(=O)nc(N4CCOCC4)oc23)c1 [Compound 16] | 
108 | 0 | 22 | 0 | 32 | Nc1ccc(-c2csc3c(=O)nc(N4CCOCC4)oc23)cc1 [Compound 17] | 
263 | 42 | 14 |  |  | O=c1nc(N2CCOCC2)[nH]c2c1cnn2-c1ccccc1 [Compound 22] | inhibition at 10 µM (PI3K-delta): 20%; inhibition at 10 µM (PIM-1): 45%; inhibition at 10 µM (PI3K-gamma): 8%
1.4 |  | 6.6 |  |  | CCOC(=O)Cn1ncc2c(=O)nc(N3CCOCC3)[nH]c21 [Compound 24] | inhibition at 10 µM (PLK-1; read-out: PLK-1(% Inh at 10 μM)): 7.5%; inhibition at 10 µM (PI3K-delta): 7.2%; inhibition at 10 µM (mTOR): 0%; inhibition at 10 µM (PIM-1): 0.9%; inhibition at 10 µM (PI3K-gamma): 14%; inhibition at 10 µM (PI3K-beta): 22%; IC50 (DNA-PK): 24 µM
149 |  | 30 |  |  | O=c1nc(N2CCOCC2)[nH]c2c1cnn2-c1ccc2c(c1)OCCO2 [Compound 27] | inhibition at 10 µM (PI3K-delta): 50%; inhibition at 10 µM (mTOR): 4.4%; IC50 (PIM-1): 1 µM; inhibition at 10 µM (PI3K-gamma): 48%; inhibition at 10 µM (PI3K-beta): 12%; IC50 (DNA-PK): 24 µM
 |  |  |  |  | O=c1cc(N2CCOCC2)oc2c(-c3ccccc3)cccc12 [LY294002, 2-(4-morpholinyl)-8-phenyl-4H-1-benzopyran-4-one] | IC50 (PI-3 kinases; C. J. Vlahos et al. 1994): 1.4 µM
 |  |  |  |  | O=c1cc(N2CCNCC2)oc2c(-c3ccccc3)cccc12 [LY303511] | PI3K inhibition activity (PI-3 kinases; C. Vlahos et al. 1994): lose all PI3K inhibition activity
 |  |  |  |  | Cc1cnc(Nc2ccc(N3CCN(C)CC3)cc2)nc1Nc1cccc(S(=O)(=O)NC(C)(C)C)c1 [TG101209] | inhibition of BET protein BRD4-1 (BET protein BRD4-1): potently inhibit

Compound | IC50 (PC3 cells; PC-3, PC3 cells, 72 hours, WST) [µM] | inhibition at 0.3 µM (mTOR) [%] | inhibition at 0.3 µM (PI3K-alpha) [%] | inhibition at 0.3 µM (PLK-1) [%] | inhibition at 0.3 µM (PI3K-delta) [%] | other results
COc1cccc(-c2csc3c(=O)nc(N4CCOCC4)oc23)c1 [Compound 13] |  | 0 | 6.8 | 0 | 0 | IC50 (PC3 cells; PC-3, 72 h): 94 µM
